From ChEMBL document CHEMBL4359841, “Late-Stage Functionalization of Platensimycin Leading to Multiple Analogues with Improved Antibacterial Activity in Vitro and in Vivo” (2019)
The source made the active and inactive calls. No rule for the calls is given here.

Test system: Staphylococcus aureus
Assay: Inhibition of FabB/FabF in methicillin-resistant Staphylococcus aureus assessed as antibacterial activity at 5 ug/disk after 18 hrs by agar disk diffusion method

SMILES	antibacterial activity (disk diffusion, qualitative)
CC(C)(C)SC1=C[C@]23C[C@H]4C[C@H](O[C@@]4(C)C2)[C@H]3[C@](C)(CCC(=O)Nc2c(O)ccc(C(=O)O)c2O)C1=O	Active
C[C@]12C[C@@]34C=C(Sc5ccc(-c6ccc(C=O)cc6)cc5)C(=O)[C@@](C)(CCC(=O)Nc5c(O)ccc(C(=O)O)c5O)[C@@H]3[C@H](C[C@@H]1C4)O2	Active
C[C@]12C[C@@]34C=C(Sc5cccc(C#Cc6cccc(N)c6)c5)C(=O)[C@@](C)(CCC(=O)Nc5c(O)ccc(C(=O)O)c5O)[C@@H]3[C@H](C[C@@H]1C4)O2	Active
C[C@]12C[C@@]34C=C(Sc5ccc(-c6cccc(O)c6)cc5)C(=O)[C@@](C)(CCC(=O)Nc5c(O)ccc(C(=O)O)c5O)[C@@H]3[C@H](C[C@@H]1C4)O2	Active
CCSC1=C[C@]23C[C@H]4C[C@H](O[C@@]4(C)C2)[C@H]3[C@](C)(CCC(=O)Nc2c(O)ccc(C(=O)O)c2O)C1=O	Active
CCN(CC)CC#Cc1cccc(SC2=C[C@]34C[C@H]5C[C@H](O[C@@]5(C)C3)[C@H]4[C@](C)(CCC(=O)Nc3c(O)ccc(C(=O)O)c3O)C2=O)c1	Active
C[C@]12C[C@@]34C=C(Sc5ccc(C#Cc6ccccc6)cc5)C(=O)[C@@](C)(CCC(=O)Nc5c(O)ccc(C(=O)O)c5O)[C@@H]3[C@H](C[C@@H]1C4)O2	Active
C[C@]12C[C@@]34C=C(Sc5cccc(Cl)c5)C(=O)[C@@](C)(CCC(=O)Nc5c(O)ccc(C(=O)O)c5O)[C@@H]3[C@H](C[C@@H]1C4)O2	Active
C[C@]12C[C@@]34C=C(Sc5cccc(-c6ccccc6)c5)C(=O)[C@@](C)(CCC(=O)Nc5c(O)ccc(C(=O)O)c5O)[C@@H]3[C@H](C[C@@H]1C4)O2	Active
Cc1occc1SC1=C[C@]23C[C@H]4C[C@H](O[C@@]4(C)C2)[C@H]3[C@](C)(CCC(=O)Nc2c(O)ccc(C(=O)O)c2O)C1=O	Active
C[C@]12C[C@@]34C=C(Sc5ccccc5C(=O)O)C(=O)[C@@](C)(CCC(=O)Nc5c(O)ccc(C(=O)O)c5O)[C@@H]3[C@H](C[C@@H]1C4)O2	Active
COc1ccccc1-c1cccc(SC2=C[C@]34C[C@H]5C[C@H](O[C@@]5(C)C3)[C@H]4[C@](C)(CCC(=O)Nc3c(O)ccc(C(=O)O)c3O)C2=O)c1	Active
Cc1ccc(C#Cc2cccc(SC3=C[C@]45C[C@H]6C[C@H](O[C@@]6(C)C4)[C@H]5[C@](C)(CCC(=O)Nc4c(O)ccc(C(=O)O)c4O)C3=O)c2)cc1	Active
C[C@]12C[C@@]34C=C(Sc5ccc(C#CC6(O)CCCCC6)cc5)C(=O)[C@@](C)(CCC(=O)Nc5c(O)ccc(C(=O)O)c5O)[C@@H]3[C@H](C[C@@H]1C4)O2	Active
C[C@]12C[C@@]34C=C(Sc5ccc(-c6ccccc6)cc5)C(=O)[C@@](C)(CCC(=O)Nc5c(O)ccc(C(=O)O)c5O)[C@@H]3[C@H](C[C@@H]1C4)O2	Active
C[C@]12C[C@@]34C=C(Sc5ccc(C#Cc6ccc(C(=O)O)cc6)cc5)C(=O)[C@@](C)(CCC(=O)Nc5c(O)ccc(C(=O)O)c5O)[C@@H]3[C@H](C[C@@H]1C4)O2	Active
CCCCCC#Cc1cccc(SC2=C[C@]34C[C@H]5C[C@H](O[C@@]5(C)C3)[C@H]4[C@](C)(CCC(=O)Nc3c(O)ccc(C(=O)O)c3O)C2=O)c1	Active
C=CCSC1=C[C@]23C[C@H]4C[C@H](O[C@@]4(C)C2)[C@H]3[C@](C)(CCC(=O)Nc2c(O)ccc(C(=O)O)c2O)C1=O	Active
C[C@]12C[C@@]34C=C(Sc5cccc(C#Cc6cccc(F)c6)c5)C(=O)[C@@](C)(CCC(=O)Nc5c(O)ccc(C(=O)O)c5O)[C@@H]3[C@H](C[C@@H]1C4)O2	Active
C[C@]12C[C@@]34C=C(Sc5cccc(Br)c5)C(=O)[C@@](C)(CCC(=O)Nc5c(O)ccc(C(=O)O)c5O)[C@@H]3[C@H](C[C@@H]1C4)O2	Active
C[C@]12C[C@@]34C=C(Sc5cccs5)C(=O)[C@@](C)(CCC(=O)Nc5c(O)ccc(C(=O)O)c5O)[C@@H]3[C@H](C[C@@H]1C4)O2	Active
C[C@]12C[C@@]34C=C(SCc5ccco5)C(=O)[C@@](C)(CCC(=O)Nc5c(O)ccc(C(=O)O)c5O)[C@@H]3[C@H](C[C@@H]1C4)O2	Active
C[C@]12C[C@@]34C=C(Sc5cc(Cl)cc(Cl)c5)C(=O)[C@@](C)(CCC(=O)Nc5c(O)ccc(C(=O)O)c5O)[C@@H]3[C@H](C[C@@H]1C4)O2	Active
COc1ccc(C#Cc2cccc(SC3=C[C@]45C[C@H]6C[C@H](O[C@@]6(C)C4)[C@H]5[C@](C)(CCC(=O)Nc4c(O)ccc(C(=O)O)c4O)C3=O)c2)cc1	Active
CCCCC#Cc1ccc(SC2=C[C@]34C[C@H]5C[C@H](O[C@@]5(C)C3)[C@H]4[C@](C)(CCC(=O)Nc3c(O)ccc(C(=O)O)c3O)C2=O)cc1	Active

SMILES	antibacterial activity (disk diffusion, qualitative)
C[C@]12C[C@@]34C=C(Sc5ccc(C#CCN)cc5)C(=O)[C@@](C)(CCC(=O)Nc5c(O)ccc(C(=O)O)c5O)[C@@H]3[C@H](C[C@@H]1C4)O2	Active
C[C@]12C[C@@]34C=C(Sc5cccc(C#CCN)c5)C(=O)[C@@](C)(CCC(=O)Nc5c(O)ccc(C(=O)O)c5O)[C@@H]3[C@H](C[C@@H]1C4)O2	Active
C[C@]12C[C@@]34C=C(Sc5cccc(-c6cccc(O)c6)c5)C(=O)[C@@](C)(CCC(=O)Nc5c(O)ccc(C(=O)O)c5O)[C@@H]3[C@H](C[C@@H]1C4)O2	Active
CNC(=O)/C=C/c1ccc(SC2=C[C@]34C[C@H]5C[C@H](O[C@@]5(C)C3)[C@H]4[C@](C)(CCC(=O)Nc3c(O)ccc(C(=O)O)c3O)C2=O)cc1	Active
CC(C)(C)OC(=O)/C=C/c1cccc(SC2=C[C@]34C[C@H]5C[C@H](O[C@@]5(C)C3)[C@H]4[C@](C)(CCC(=O)Nc3c(O)ccc(C(=O)O)c3O)C2=O)c1	Active
Cc1ccc(SC2=C[C@]34C[C@H]5C[C@H](O[C@@]5(C)C3)[C@H]4[C@](C)(CCC(=O)Nc3c(O)ccc(C(=O)O)c3O)C2=O)c(C)c1	Active
C[C@]12C[C@@]34C=C(Sc5cccc(-c6ccc(C=O)cc6)c5)C(=O)[C@@](C)(CCC(=O)Nc5c(O)ccc(C(=O)O)c5O)[C@@H]3[C@H](C[C@@H]1C4)O2	Active
CCCCC#Cc1cccc(SC2=C[C@]34C[C@H]5C[C@H](O[C@@]5(C)C3)[C@H]4[C@](C)(CCC(=O)Nc3c(O)ccc(C(=O)O)c3O)C2=O)c1	Active
CNC(=O)/C=C/c1cccc(SC2=C[C@]34C[C@H]5C[C@H](O[C@@]5(C)C3)[C@H]4[C@](C)(CCC(=O)Nc3c(O)ccc(C(=O)O)c3O)C2=O)c1	Active
C[C@]12C[C@@]34C=C(Sc5cccc(C#Cc6ccc(F)cc6)c5)C(=O)[C@@](C)(CCC(=O)Nc5c(O)ccc(C(=O)O)c5O)[C@@H]3[C@H](C[C@@H]1C4)O2	Active
C[C@]12C[C@@]34C=C(Sc5ccc(N)cc5)C(=O)[C@@](C)(CCC(=O)Nc5c(O)ccc(C(=O)O)c5O)[C@@H]3[C@H](C[C@@H]1C4)O2	Active
C[C@]12C[C@@]34C=C(Sc5cccc(/C=C/C(=O)OCCO)c5)C(=O)[C@@](C)(CCC(=O)Nc5c(O)ccc(C(=O)O)c5O)[C@@H]3[C@H](C[C@@H]1C4)O2	Active
C[C@]12C[C@@]34C=C(Sc5ccc(-c6cccnc6)cc5)C(=O)[C@@](C)(CCC(=O)Nc5c(O)ccc(C(=O)O)c5O)[C@@H]3[C@H](C[C@@H]1C4)O2	Active
C[C@]12C[C@@]34C=C(Sc5c(F)c(F)c(F)c(F)c5F)C(=O)[C@@](C)(CCC(=O)Nc5c(O)ccc(C(=O)O)c5O)[C@@H]3[C@H](C[C@@H]1C4)O2	Active
CCCCc1ccc(C#Cc2cccc(SC3=C[C@]45C[C@H]6C[C@H](O[C@@]6(C)C4)[C@H]5[C@](C)(CCC(=O)Nc4c(O)ccc(C(=O)O)c4O)C3=O)c2)cc1	Active
C[C@]12C[C@@]34C=C(Sc5cccc(C#Cc6ccc(Cl)cc6)c5)C(=O)[C@@](C)(CCC(=O)Nc5c(O)ccc(C(=O)O)c5O)[C@@H]3[C@H](C[C@@H]1C4)O2	Active
COC(=O)/C=C/c1cccc(SC2=C[C@]34C[C@H]5C[C@H](O[C@@]5(C)C3)[C@H]4[C@](C)(CCC(=O)Nc3c(O)ccc(C(=O)O)c3O)C2=O)c1	Active
C[C@]12C[C@@]34C=C(Sc5ccc(-c6ccco6)cc5)C(=O)[C@@](C)(CCC(=O)Nc5c(O)ccc(C(=O)O)c5O)[C@@H]3[C@H](C[C@@H]1C4)O2	Active
CN(C)C(=O)/C=C/c1cccc(SC2=C[C@]34C[C@H]5C[C@H](O[C@@]5(C)C3)[C@H]4[C@](C)(CCC(=O)Nc3c(O)ccc(C(=O)O)c3O)C2=O)c1	Active
C[C@]12C[C@@]34C=C(Sc5cccc(-c6ccco6)c5)C(=O)[C@@](C)(CCC(=O)Nc5c(O)ccc(C(=O)O)c5O)[C@@H]3[C@H](C[C@@H]1C4)O2	Active
CCCCc1ccc(SC2=C[C@]34C[C@H]5C[C@H](O[C@@]5(C)C3)[C@H]4[C@](C)(CCC(=O)Nc3c(O)ccc(C(=O)O)c3O)C2=O)cc1	Active
CC(C)(C)NC(=O)/C=C/c1ccc(SC2=C[C@]34C[C@H]5C[C@H](O[C@@]5(C)C3)[C@H]4[C@](C)(CCC(=O)Nc3c(O)ccc(C(=O)O)c3O)C2=O)cc1	Active
COc1ccccc1-c1ccc(SC2=C[C@]34C[C@H]5C[C@H](O[C@@]5(C)C3)[C@H]4[C@](C)(CCC(=O)Nc3c(O)ccc(C(=O)O)c3O)C2=O)cc1	Active
C[C@]12C[C@@]34C=C(Sc5ccc(C(=O)O)cc5)C(=O)[C@@](C)(CCC(=O)Nc5c(O)ccc(C(=O)O)c5O)[C@@H]3[C@H](C[C@@H]1C4)O2	Active
